Test results reported in US5214067A, “Fungicidal compositions and method” (Merck & Co., Inc., priority 1990, dated 1993).
Converted amounts (≈) assume the structure as drawn.

Legend:
[1] = system: Candida albicans MY 1055; test: Minimum inhibitory concentration (broth dilution) against Candida albicans MY 1055; format: cell-based; conditions: MY1055, C. albicans MY 1055, YNB/G, 37° C., 250 rpm, 17 hr
Description: 11-(3-hydroxymethyl-4-oxo-2oxetanyl)-7-methyl-2,4-undecadienoic acid (β-lactone compound), was solubilized in 100 percent dimethylsulfoxide (DMSO). Twofold dilutions were made with DMSO to obtain final drug concentrations in the broth dilution assay tubes ranging from […].
The Candida albicans, MY 1055 yeast culture, maintained in yeast nitrogen base/glucose (1/2 percent), YNB/G, was transferred to fresh medium and incubated 7 hours at 37° with shaking at 250 rpm. After incubation, each culture was diluted to A600 =0.0004 U/ml which was previously determined to be equal to 3000 cfu/ml (colony forming units per milliliter).
1 milliliter of YNB/G inoculated with yeast culture was added to sterile test tubes. The tubes were incubated at 250 rpm, 37° C. for 17 hr. The minimum inhibitory concentration (MIC) was recorded as the lowest concentration of drug […].
In a similar manner, the pyranyl ester was solubilized in dimethyl sulfoxide and dilution assay tubes from […] prepared. […] The MIC against C. C. albicans MY 1055 was determined to be 2 μg/ml.

[2] = system: C. albicans; test: Synergistic and fungicidal effect: viable cell count (CFU/ml) of exponential phase C. albicans culture over time, drugs alone and in combination; format: cell-based, Candida albicans; conditions: β-lactone 3.1 μg/ml, pyranyl glycine ester 2 μg/ml, alone or together
Description: Synergistic and fungicidal effects were determined by treating exponential phase C. albicans culture with β-Lactone and pyranyl glycine ester at respective MIC level alone and in combination. Exponential phase cultures were prepared by diluting an overnight culture 1:50 or 1:1000 YNB/G. After incubating the diluted cells 7 or 17 hrs. at 37° C., the exponential phase cells were diluted in YNB/G to A600 =0.004u/ml to obtain 3000 cfu/ml.
10 microliters (μl) of β-lactone compound or pyranyl glycine ester compound prepared in DMSO was added to 1 ml of diluted exponential phase cells. The tubes were incubated at 37° C. at 250 rpm for about 24 hours. Periodically, aliquots were diluted in 0.9% saline and plated on Sabouraud dextrose agar plates to determine the number of cfu/ml.

[3] = time 2 hours, no drug 4.45 × 10^3
[4] = time 4.5 hours, no drug 1.75 × 10^4
[5] = time 7.5 hours, no drug 1.10 × 10^5
[6] = time 16.0 hours, no drug 5.35 × 10^6
[7] = time 20.5 hours, no drug 5.30 × 10^7
[8] = time 24.0 hours, no drug 7.65 × 10^7

## CCCC=CC=CC=C(C)C1OCC(C)C(OC)C1OC(=O)CN (stereo not shown) [Pyranyl Glycine Ester Compound, (2,3,4,5)-tetrahydro-4-methoxy-5-methyl-2-(1-methyl-1,3,5-nonatrienyl)-2-pyran-3-yl-glycine]
[1]
  MIC: 2 µg/mL (≈ 5.93 µM)
[2]; time 0 hours (start), 37° C.
  Fungal Growth (CFU/ML): 2.70 × 10^3 CFU/ML
[2]; [3]
  Fungal Growth (CFU/ML): 6.05 × 10^3 CFU/ML
[2]; [4]
  Fungal Growth (CFU/ML): 9.60 × 10^3 CFU/ML
[2]; [5]
  Fungal Growth (CFU/ML): 1.40 × 10^4 CFU/ML
[2]; [6]
  Fungal Growth (CFU/ML): 1.00 × 10^5 CFU/ML
[2]; [7]
  Fungal Growth (CFU/ML): 1.02 × 10^6 CFU/ML
[2]; [8]
  Fungal Growth (CFU/ML): 1.37 × 10^6 CFU/ML

## CC(=CC(=O)O)C=C(C)CC(C)CCCCC1OC(=O)C1CO (stereo not drawn) [β-Lactone Compound]
[1]
  MIC: 3.1 µg/mL (≈ 9.56 µM)
[2]; time 0 hours (start), 37° C.
  Fungal Growth (CFU/ML): 2.70 × 10^3 CFU/ML
[2]; [3]
  Fungal Growth (CFU/ML): 5.95 × 10^3 CFU/ML
[2]; [4]
  Fungal Growth (CFU/ML): 4.10 × 10^3 CFU/ML
[2]; [5]
  Fungal Growth (CFU/ML): 4.55 × 10^3 CFU/ML
[2]; [6]
  Fungal Growth (CFU/ML): 1.70 × 10^3 CFU/ML
[2]; [7]
  Fungal Growth (CFU/ML): 1.50 × 10^3 CFU/ML
[2]; [8]
  Fungal Growth (CFU/ML): 1.50 × 10^3 CFU/ML
